# Starred links: 1 amine or outer side, 2 acyl side, 3 side chain; linkers in the order of their positions; H or OH if unused. Positions of bridges follow the written chain, without caps; N, C: chain ends. Non-standard residues stand in square brackets, D forms with d. Residues, ends and D or L forms follow the SMILES beside them. *: point of attachment. hTyr(3S-OH,4S-OH,3'-OSO3H) = N[C@H](C(=O)O)[C@H](O)[C@@H](O)c1ccc(O)c(OS(=O)(=O)O)c1; Orn(4R-OH,5R-OH) = O=C([C@H](C[C@@H](O)[C@@H](O)N[*:3])N[*:1])[*:2]; Pro(3S-OH,4S-Me) = C[C@H]1CN[C@H](C(=O)O)[C@H]1O; X1 = CCCCCOc1ccc(-c2cc(-c3ccc(C(=O)*)cc3)no2)cc1; Gln(3R-OH) = NC(=O)C[C@@H](O)[C@H](N)C(=O)O; Hyp = O=C(O)[C@@H]1C[C@@H](O)CN1
# Assays:
# [1] = Volume of distribution in iv dosed adult human by HPLC; format: ADME, organism-based; conditions: in vivo
# [2] = Ratio of AUC in neonates with Candida albican infection to MIC for Candida albicans; format: functional
# [3] = AUC (0 to 24 hrs) in candidiasis patient at 8 mg/kg, iv by HPLC; format: ADME, organism-based; design: time < 24 hr, dose 8 mg/kg, route intravenous; conditions: human, plasma
# [4] = AUC (0 to 24 hrs) in candidiasis patient at 12 mg/kg, iv by HPLC; format: ADME, organism-based; design: time < 24 hr, dose 12 mg/kg, route intravenous; conditions: human, plasma
# [5] = AUC (0 to 24 hrs) in candidiasis patient at 10 mg/kg, iv by HPLC; format: ADME, organism-based; design: time < 24 hr, dose 10 mg/kg, route intravenous; conditions: human, plasma
# Candida albicans = test: Antifungal activity against Candida albicans; format: functional
# [6] = Volume of distribution in iv dosed human infant by HPLC; format: ADME, organism-based; conditions: in vivo
# [7] = Dose normalized clearance in iv dosed adult human by HPLC; format: ADME, organism-based; conditions: in vivo
compound,measurement,setting,value
"CCCCCOc1ccc(-c2cc(-c3ccc(C(=O)N[C@H]4C[C@@H](O)[C@@H](O)NC(=O)[C@@H]5[C@@H](O)[C@@H](C)CN5C(=O)[C@H]([C@H](O)CC(N)=O)NC(=O)[C@H]([C@H](O)[C@@H](O)c5ccc(O)c(OS(=O)(=O)O)c5)NC(=O)[C@@H]5C[C@@H](O)CN5C(=O)[C@H]([C@@H](C)O)NC4=O)cc3)no2)cc1 [MICAFUNGIN] (X1-[Orn(4R-OH,5R-OH)]T[Hyp][hTyr(3S-OH,4S-OH,3'-OSO3H)][Gln(3R-OH)][Pro(3S-OH,4S-Me)]; lactam 1-C)",Vd,[1],10.4 L
same,Ratio,[2],1330
same,AUC(0-t) at 24 h,[3],< 166 µg·h/mL
same,AUC(0-t) at 24 h,[4],< 166 µg·h/mL
same,AUC(0-t) at 24 h,[5],< 166 µg·h/mL
same,MIC,Candida albicans,0.125 µg/mL
same,Vd,[6],10.3 L
same,clearance,[7],19.5 mL/min

# Source: ChEMBL document CHEMBL1255472, “Population pharmacokinetics of micafungin in neonates and young infants” (Antimicrob Agents Chemother, 2010)
